From paper PMC10005332, “It Takes Two to Tango, Part II: Synthesis of A-Ring Functionalised Quinones Containing Two Redox-Active Centres with Antitumour Activities” (Molecules, 2023)
pIC50: −log10 of the molar value. Read-outs that look alike come from different tables or passages of the source.

What was measured:
[1] = test system: HL60 (human pro-myelocytic leukaemia); experiment: MTT cytotoxicity assay, HL60; assay type: cell-based; settings: for pIC50: MTT, 72 h exposure, three independent experiments, read-out: Cytotoxic activity IC50 (95% CI) HL60; for Selectivity index HL60: ratio of cytotoxicity L929 / HL60
Protocol: (§1) In this study, the IC50 was obtained in micromolar concentrations, using the colourimetric MTT (3-(4,5-dimethylthiazol-2-yl)-2,5-diphenyl tetrazolium bromide)) assay, and doxorubicin was used as the positive control. […] The activity against the non-tumoural murine fibroblast cell line L929 was also evaluated in order to study the cytotoxicity behaviour of each compound and to understand their respective relative selectivity. The selectivity index was obtained using the ratio of measured cytotoxicity between the L929 cell line and each of the cancer cell lines, and the results are presented in Table 2.
(§2) The in vitro cytotoxicity activity of the compounds was evaluated by the colorimetric MTT (3-(4,5-dimethylthiazol-2-yl)-2,5-diphenyl tetrazolium bromide)) assay using the following tumor cell lines: HCT-116 (colon carcinoma), PC3 (prostate), SNB-19 (glioblastoma), K-562 (myelogenous leukaemia), HL-60 (human promyelocytic leukaemia), B16 (murine melanoma), A549 (human lung carcinoma), KG1 (human acute myeloid leukaemia), and RAJI (human Burkitt’s lymphoma), which were provided by the National Cancer Institute (Bethesda, MD, USA). The L929 cell line (mouse fibroblast L cells NCTC clone 929) employed in this study as a control cell line was obtained from the American Type Culture Collection (Manassas, VA, USA). The cell lines (Table S4) were maintained in flasks containing RPMI 1640 or DMEM medium supplemented with 10% bovive fetal sérum, 100 U/mL penicillin, and 100 μg/mL streptomycin at 37 °C and in 5% CO2 atmosphere. The compounds tested were dissolved in DMSO. Doxorubicin served as the positive control. Cell treatments were performed with three replicates and the cells were mycoplasma free. After 72 h incubation, 100 μL of MTT solution (0.5 mg/mL) was added to each well, and the cells were incubated for 3 h. The supernatant was removed and 100 μL of DMSO was added and the absorbance at 595 nm was measured using Victor Nivo Multimode plate reader (PerkinElmer, Waltham, MA, USA). The absorbances obtained were used to calculate the IC50 values by nonlinear regression employing appropriate statistical software.
(§3) The in vitro cytotoxicity activity of compounds was evaluated by the colorimetric MTT (3-(4,5-dimethylthiazol-2-yl)-2,5-diphenyl tetrazolium bromide)) assay using tumor cell lines: HCT-116 (colon carcinoma), PC3 (prostate), SNB-19 (glioblastoma), K-562 (myelogenous leukaemia), HL-60 (human promyelocytic leukaemia), B16 (murine melanoma), A549 (human lung carcinoma), KG1 (human acute myeloid leukaemia) and RAJI (human Burkitt's lymphoma), which were provided by the National Cancer Institute (Bethesda, MD, USA). The L929 cell line (mouse fibroblast L cells NCTC clone 929) employed in this study as a control cell line was obtained from the American Type Culture […]
(§4) Collection (Manassas, VA, USA). Cell lines (Table 01) were maintained in flasks containing RPMI 1640 or DMEM medium supplemented with 10% bovive fetal sérum, 100 U/mL penicillin, and 100 μg/mL streptomycin at 37 °C and 5% CO2 atmosphere.
(§5) Compounds tested were dissolved in DMSO. Doxorubicin served as positive control. Cell treatments were performed with three replicates and cells were mycoplasma-free. After 72 h incubation, 100 μL of MTT solution (0.5 mg/mL) was added to each well, and cells were incubated for 3 h. The supernatant was removed and 100 μL of DMSO was added and the absorbance at 595 nm was measured using Victor Nivo Multimode plate reader

[2] = MTT cytotoxicity assay, L929 control line; assay type: cell-based, mouse; settings: mouse, L929 fibroblast cells (non-tumoral control line), 72 h exposure, read-out: Cytotoxic activity IC50 (95% CI) L929
Protocol: as §1, §2, §3, §4, §5

[3] = test system: L929 cells (non-tumoral mouse fibroblast); experiment: MTT cytotoxicity assay, L929 control line; assay type: cell-based; settings: 72 h exposure, read-out: Cytotoxic activity IC50 (95% CI) L929
Protocol: as §1, §2, §3, §4, §5

[4] = test system: K-562 (human chronic myeloid leukaemia); experiment: MTT cytotoxicity assay, K-562; assay type: cell-based; settings: for pIC50: Homo sapiens, K562, MTT, 72 h exposure, three independent experiments, read-out: Cytotoxic activity IC50 (95% CI) K-562; for Selectivity index K-562: ratio of cytotoxicity L929 / K-562
Protocol: as §1, §2, §3, §4, §5

[5] = test system: SNB-19 (human astrocytoma); experiment: MTT cytotoxicity assay, SNB-19; assay type: cell-based; settings: for pIC50: Homo sapiens, SNB-19, MTT, 72 h exposure, three independent experiments, read-out: Cytotoxic activity IC50 (95% CI) SNB-19; for Selectivity index SNB-19: ratio of cytotoxicity L929 / SNB-19
Protocol: as §1, §2, §3, §4, §5

[6] = test system: RAJI (human Burkitt’s lymphoma); experiment: MTT cytotoxicity assay, RAJI; assay type: cell-based; settings: for pIC50: Homo sapiens, Raji, 72 h, MTT, 72 h exposure, three independent experiments, read-out: Cytotoxic activity IC50 (95% CI) RAJI; for Selectivity index RAJI: ratio of cytotoxicity L929 / RAJI
Protocol: as §1, §2, §3, §4, §5

[7] = test system: KG1 (human acute myeloid leukaemia); experiment: MTT cytotoxicity assay, KG1; assay type: cell-based; settings: for pIC50: Homo sapiens, MTT, 72 h exposure, three independent experiments, read-out: Cytotoxic activity IC50 (95% CI) KG1; for Selectivity index KG1: ratio of cytotoxicity L929 / KG1
Protocol: as §1, §2, §3, §4, §5

B16 (murine melanoma) = experiment: MTT cytotoxicity assay, B16; assay type: cell-based; settings: for pIC50: Mus musculus, MTT, 72 h exposure, three independent experiments, read-out: Cytotoxic activity IC50 (95% CI) B16; for Selectivity index B16: ratio of cytotoxicity L929 / B16
Protocol: as §1, §2, §3, §4, §5

[8] = test system: PC3 (human prostate adenocarcinoma); experiment: MTT cytotoxicity assay, PC3; assay type: cell-based; settings: for pIC50: Homo sapiens, MTT, 72 h exposure, three independent experiments, read-out: Cytotoxic activity IC50 (95% CI) PC3; for Selectivity index PC3: ratio of cytotoxicity L929 / PC3
Protocol: as §1, §2, §3, §4, §5

[9] = test system: A549 (human lung carcinoma); experiment: MTT cytotoxicity assay, A549; assay type: cell-based; settings: for pIC50: Homo sapiens, A549, MTT, 72 h exposure, three independent experiments, read-out: Cytotoxic activity IC50 (95% CI) A549; for Selectivity index A549: ratio of cytotoxicity L929 / A549
Protocol: as §1, §2, §3, §4, §5

[10] = test system: HCT-116 (human colorectal carcinoma); experiment: MTT cytotoxicity assay, HCT-116; assay type: cell-based; settings: for pIC50: Homo sapiens, HCT-116, 72 h, MTT, 72 h exposure, three independent experiments, read-out: Cytotoxic activity IC50 (95% CI) HCT-116; for Selectivity index HCT-116: ratio of cytotoxicity L929 / HCT-116
Protocol: as §1, §2, §3, §4, §5

Structure (SMILES) | pIC50 ([1]; Homo sapiens, HL-60, 72 h) | Selectivity index HL60 [1] | IC50 at 72 h [2] [µM] | pIC50 [4] | Selectivity index K-562 [4] | pIC50 [5] | Selectivity index SNB-19 [5] | pIC50 [6] | Selectivity index RAJI [6] | pIC50 [7] | Selectivity index KG1 [7] | pIC50 (B16 (murine melanoma)) | Selectivity index B16 (B16 (murine melanoma)) | pIC50 [8] | Selectivity index PC3 [8] | pIC50 [9] | Selectivity index A549 [9] | pIC50 [10] | Selectivity index HCT-116 [10] | also measured
C#CCNC1=CC(=O)c2c(O)cccc2C1=O [Compound 18b, 5-hydroxy-2-(prop-2-yn-1-ylamino)naphthalene-1,4-dione] | < 4.00 | 0.2 | 24 | 4.60 | 1.0 | 4.82 | 1.6 | 4.63 | 1.0 | < 4.00 | 0.2 | 5.06 | 2.8 | < 4.00 | 0.2 | 4.82 | 1.6 |  |  | pIC50 [3]: 4.62
CC1(C)OC2=C(CC1Cn1cc(CNC3=CC(=O)c4c(I)cccc4C3=O)nn1)C(=O)C(=O)c1ccccc12 (stereo not drawn) [Compound 21a, 3-((4-(((5-iodo-1,4-dioxo-1,4-dihydronaphthalen-2-yl)amino)methyl)-1H-1,2,3-triazol-1-yl)methyl)-2,2-dimethyl-3,4-dihydro-2H-benzo[h]chromene-5,6-dione] | 5.99 | 1.8 | 1.86 | 5.30 | 0.4 | 5.53 | 0.6 | 5.24 | 0.3 | 5.38 | 0.4 | 6.02 | 1.9 | 5.21 | 0.3 | 5.56 | 0.7 | 5.57 | 0.7 | 
CC1(C)OC2=C(CC1Cn1cc(CNC3=CC(=O)c4c(O)cccc4C3=O)nn1)C(=O)C(=O)c1ccccc12 (stereo not drawn) [Compound 21b, 3-((4-(((5-hydroxy-1,4-dioxo-1,4-dihydronaphthalen-2-yl)amino)methyl)-1H-1,2,3-triazol-1-yl)methyl)-2,2-dimethyl-3,4-dihydro-2H-benzo[h]chromene-5,6-dione] | 5.65 | 0.9 | 2.07 | 5.38 | 0.5 | 5.37 | 0.5 | 5.70 | 1.0 | 5.52 | 0.7 | 5.40 | 0.5 | 5.41 | 0.5 | 5.77 | 1.2 | 5.79 | 1.3 | 
COc1cccc2c1C(=O)C(NCc1cn(CC3CC4=C(OC3(C)C)c3ccccc3C(=O)C4=O)nn1)=CC2=O (stereo not drawn) [Compound 21c, 3-((4-(((8-methoxy-1,4-dioxo-1,4-dihydronaphthalen-2-yl)amino)methyl)-1H-1,2,3-triazol-1-yl)methyl)-2,2-dimethyl-3,4-dihydro-2H-benzo[h]chromene-5,6-dione] | 5.64 | 2.5 | 5.6 | 5.28 | 1.1 | 5.31 | 1.1 | 5.91 | 4.6 | 5.88 | 4.2 | 5.34 | 1.2 | 5.29 | 1.1 | 5.32 | 1.2 | 5.31 | 1.2 | 
CC1(C)OC2=C(CC1Cn1cc(CNC3=CC(=O)c4cccc(OCc5ccccc5)c4C3=O)nn1)C(=O)C(=O)c1ccccc12 (stereo not drawn) [Compound 21d, 3-((4-(((8-benzyloxy-1,4-dioxo-1,4-dihydronaphthalen-2-yl)amino)methyl)-1H-1,2,3-triazol-1-yl)methyl)-2,2-dimethyl-3,4-dihydro-2H-benzo[h]chromene-5,6-dione] | 6.05 | 5.9 | 5.27 | 5.00 | 0.5 | 5.42 | 1.4 | 4.54 | 0.2 | 4.94 | 0.5 | 5.29 | 1.0 | 5.01 | 0.5 | 5.58 | 2.0 | 5.38 | 1.3 | 
CC1(C)OC2=C(CC1Cn1cc(CNC3=CC(=O)c4cc5ccccc5cc4C3=O)nn1)C(=O)C(=O)c1ccccc12 (stereo not drawn) [Compound 21e, 3-((4-(((1,4-dioxo-1,4-dihydroanthracen-2-yl)amino)methyl)-1H-1,2,3-triazol-1-yl)methyl)-2,2-dimethyl-3,4-dihydro-2H-benzo[h]chromene-5,6-dione] | 6.30 | 6.6 | 1.71 | 5.43 | 0.5 | 5.88 | 1.3 | 5.17 | 0.3 | 5.38 | 0.4 | 5.54 | 0.6 | 5.54 | 0.6 | 6.06 | 1.9 | 5.76 | 1.0 | pIC50 [1]: 6.59
